Measured values: patent US8691872B2 (Teva Pharmaceutical Industries Ltd., priority 2010, dated 2014)
Read-outs that look alike come from different tables or passages of the source.

Tests used:
[1] = Modulated DSC (MDSC), glass transition temperature (Tg); type: physicochemical; details: Table 1
[2] = Procedure: As used herein, a “glass transition temperature (Tg)” of a solid is the temperature where the solid goes from a rigid state to a flexible state. At Tg, a polymer undergoes a phase transition from a hard, glass-like state to a flexible, rubber-like state. The Tg temperature values listed herein were determined based upon half-height of the step change or “S” shape curve seen in DSC data.
Dispersions were prepared using several techniques including rotary evaporation from solution, cryogrinding dry components and lyophilization. Samples were analyzed by modulated Differential Scanning calorimetry (DSC) to determine glass transition temperatures (Tg). A slight excess of citric acid was used in most dispersions i.e. 0.7:1 mol of rasagiline: citric acid.
In the following experiment, rasagiline base was mixed with citric acid (1:1 mol:mol) and then methanol was added to the mixture. After stirring and complete dissolution of solids, the solution was evaporated under vacuum in rotary evaporator at bath temperature 60° C.

[3] = AZILECT; cited from earlier work

SMILES | Tg [1] | Tg ([2]; by DSC) | Tg ([2]; cyclic DSC) | absolute bioavailability [3]
C#CCN[C@@H]1CCc2ccccc21.O=C(O)CC(O)(CC(=O)O)C(=O)O [Sample 1, mono-rasagiline citrate] | Tg = 16 °C | ~17 °C | Tg = 18 °C | 
C#CCN[C@@H]1CCc2ccccc21 [Rasagiline, R(+)-N-propargyl-1-aminoindan] |  |  |  | about 36%
